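Five compound concentrations were applied to cells in 96-well plates for 48 hours; endpoints were derived by simple linear interpolation of the resulting dose-response curve. TGI: concentration producing complete growth inhibition.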
How the values were obtained:
Assay in all cases: NCI anticancer screen, dose series, 48 h
786-0 renal = tested on: 786-0 renal
A549 NSCLC = tested on: A549 NSCLC
ACHN renal = tested on: ACHN renal
EKVX NSCLC = tested on: EKVX NSCLC
HCC-2998 colon = tested on: HCC-2998 colon
HL-60(TB) leukemia = tested on: HL-60(TB) leukemia
HT29 colon = tested on: HT29 colon
KM12 colon = tested on: KM12 colon
MDA-MB-231 breast = tested on: MDA-MB-231 breast
MDA-N = tested on: MDA-N
NCI-H522 lung = tested on: NCI-H522 lung
NCI/ADR-RES ovarian = tested on: NCI/ADR-RES ovarian
RPMI-8226 leukemia = tested on: RPMI-8226 leukemia
RXF 393 renal = tested on: RXF 393 renal
SF-295 CNS = tested on: SF-295 CNS
SN12C renal = tested on: SN12C renal
SNB-75 CNS = tested on: SNB-75 CNS
UACC-257 melanoma = tested on: UACC-257 melanoma
UO-31 renal = tested on: UO-31 renal

| Structure (SMILES) | TGI (786-0 renal) [µM] | TGI (A549 NSCLC) [µM] | TGI (ACHN renal) [µM] | TGI (EKVX NSCLC) [µM] | TGI (HCC-2998 colon) [µM] | TGI (HL-60(TB) leukemia) [µM] | TGI (HT29 colon) [µM] | TGI (KM12 colon) [µM] | TGI (MDA-MB-231 breast) [µM] | TGI (MDA-N) [µM] | TGI (NCI-H522 lung) [µM] | TGI (NCI/ADR-RES ovarian) [µM] | TGI (RPMI-8226 leukemia) [µM] | TGI (RXF 393 renal) [µM] | TGI (SF-295 CNS) [µM] | TGI (SN12C renal) [µM] | TGI (SNB-75 CNS) [µM] | TGI (UACC-257 melanoma) [µM] | TGI (UO-31 renal) [µM] |
| --- | --- | --- | --- | --- | --- | --- | --- | --- | --- | --- | --- | --- | --- | --- | --- | --- | --- | --- | --- |
| CCC(=O)N1NC(=O)C(CC)(CC)C1=O | > 100 | > 100 | > 100 | > 100 | > 100 | > 100 | > 100 | > 100 | > 100 | > 100 | > 100 | > 100 | > 100 | > 100 | > 100 | > 100 | > 100 | > 100 | > 100 |
| O=C(CC(C(=O)c1ccco1)c1cccs1)c1cccs1 (stereo unspecified) | > 100 | > 100 | > 100 | 97.8 | > 100 | 60.3 | > 100 | > 100 | > 100 | > 100 | > 100 | > 100 | > 100 | > 100 | > 100 | > 100 | > 100 | > 100 | > 100 |
| Fc1ccc(OCc2nc3cc(C(F)(F)F)ccc3nc2-c2ccccc2)cc1 | > 100 | > 100 | > 100 | > 100 | > 100 | > 89.1 | 64.9 | > 100 | > 100 | > 100 | > 100 | > 100 | > 100 | > 100 | > 100 | > 100 | > 100 | > 100 | > 100 |
| CC(=O)Nc1sc([N+](=O)[O-])cc1S(=O)(=O)c1ccc(Cl)cc1 | > 100 | > 54.6 | 10.6 | > 100 | 8.64 | > 23.5 | > 52.8 | 14.5 | > 29.6 | > 100 | 11 | 64 | > 100 | 13.5 | 8.07 | > 100 | 11.2 | 16.8 | 14.7 |
| COc1cc(=O)n2c3ccccc3n(C)c2c1C#N | > 100 | > 100 | > 100 | > 100 | > 100 | > 100 | > 100 | > 100 | > 100 | > 100 | > 100 | > 100 | > 100 | > 100 | > 100 | > 100 | > 100 | > 100 | > 100 |
| O=C1c2ccccc2C(=O)c2c1ccc1nc3c(nc21)-c1c2ccccc2cc2cccc-3c12 | > 100 | > 100 | > 57.6 | > 100 | > 100 | > 100 | > 100 | > 94.9 | > 100 | > 100 | > 100 | > 100 | > 100 | > 100 | > 100 | > 100 | > 31.6 | > 100 | > 100 |
| Cc1nn(C(=O)c2ccc(Cl)cc2)c2c1C(c1cccc([N+](=O)[O-])c1)SC(N)=N2 (stereo unspecified) | > 10 | > 10 | > 10 | > 10 | > 10 | > 10 | > 10 | > 10 | > 10 | > 10 | > 10 | > 10 | > 10 | > 10 | > 10 | > 10 | > 10 | > 10 |  |
| O=C1C(Cl)=C(N2C(=O)CCCC2=O)C(=O)c2ccccc21 | 33 | 54.7 | 21 | 33.2 | 31.4 | 4.42 | 29.2 | > 100 | 50.5 | 31 | 4.53 | 95.3 | 40.9 | 31.9 | > 100 | 46.2 | > 100 | 38.7 | 23 |
| CCCCCC(=O)Nc1nc[nH]c1C(N)=O | > 100 | > 100 | > 100 | > 100 | > 100 | > 100 | > 100 | > 100 | > 100 | > 100 | > 100 | > 100 | > 100 | > 100 | > 100 | > 100 | > 100 | > 100 | > 100 |
| O=c1[nH]c(=O)n(C2OC(CO)C(O)C2O)c2ccsc12 (stereo unspecified) | > 100 | > 100 | > 100 | > 100 | > 100 | > 100 | > 100 | > 100 | > 100 | > 100 | > 100 | > 100 | > 100 | > 100 | > 100 | > 100 | > 100 | > 100 | > 100 |
| O=C(CCCN1CCC2(CC1)NC(=O)c1ccccc1O2)c1ccc(F)cc1 | > 100 | > 100 | > 100 | > 100 | > 100 | > 100 | > 100 | > 100 | > 100 | > 100 | > 100 | > 100 | > 100 | > 100 | > 100 | > 100 | > 100 | > 100 | > 100 |
| ClCCN1CCOC1=Nc1ccc2c(c1)CCCC2 | 35.3 | 57.5 | 28.1 | 42.3 | 30.1 | 17.1 | 33.1 | 32 | 31.7 | 28.3 | 54.9 | 51.9 | 26.2 | 22.6 | 31.9 | 27 | 28.7 | 13.2 | 30.3 |
| O=C(NNc1ccnc2cc(Cl)ccc12)/C(=C\c1ccccc1Cl)NC(=O)c1ccccc1 | > 100 | > 100 | > 100 | > 100 | > 100 | 67.8 | > 100 | 51.6 | > 100 | > 100 | 39.9 | 73.7 | > 100 | > 100 | 96.1 | > 100 | > 100 | > 100 | > 100 |

From PubChem BioAssay (NCI)
